Results reported in PubChem BioAssay (NCI).
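Step 1: Grow cells in 96-well plates. Step 2: Expose to compound for 48 hours at 5 concentrations. Step 3: Interpolate endpoints linearly; if unreached, use highest concentration. Here, GI50 denotes the concentration required for 50% inhibition of growth. The concentration for full growth arrest is given as TGI.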

Key:
Assay in all cases: NCI-60 cell line screen, 48 h
[1] = tested on: DU-145 prostate
[2] = tested on: SNB-19 CNS
[3] = tested on: NCI-H23 lung
[4] = tested on: MDA-MB-435
[5] = tested on: SK-MEL-5 melanoma
[6] = tested on: SR leukemia
[7] = tested on: SF-268 CNS
[8] = tested on: TK-10 renal
[9] = tested on: NCI-H226 lung
[10] = tested on: M14 melanoma
[11] = tested on: PC-3 prostate
[12] = tested on: NCI-H522 lung
[13] = tested on: HOP-62 NSCLC
[14] = tested on: A498 renal
[15] = tested on: A549 NSCLC
[16] = tested on: LOX IMVI melanoma
[17] = tested on: CAKI-1 renal
[18] = tested on: UACC-257 melanoma
[19] = tested on: IGROV1 ovarian
[20] = tested on: SF-539 CNS
[21] = tested on: K-562 leukemia
[22] = tested on: SF-295 CNS
[23] = tested on: KM12 colon
[24] = tested on: SN12C renal
[25] = tested on: OVCAR-5 ovarian
[26] = tested on: MDA-MB-231 breast
[27] = tested on: HCT-116 colon
[28] = tested on: T-47D breast
[29] = tested on: HOP-92 NSCLC
[30] = tested on: RPMI-8226 leukemia
[31] = tested on: NCI-H460 lung
[32] = tested on: UO-31 renal
[33] = tested on: HCT-15 colon
[34] = tested on: OVCAR-4 ovarian
[35] = tested on: EKVX NSCLC
[36] = tested on: UACC-62 melanoma
[37] = tested on: ACHN renal
[38] = tested on: HL-60(TB) leukemia
[39] = tested on: RXF 393 renal
[40] = tested on: SW-620 colon
[41] = tested on: MCF7 breast
[42] = tested on: HCC-2998 colon
[43] = tested on: MALME-3M melanoma
[44] = tested on: NCI/ADR-RES ovarian
[45] = tested on: SK-OV-3 ovarian
[46] = tested on: BT-549 breast
[47] = tested on: OVCAR-8 ovarian
[48] = tested on: CCRF-CEM leukemia
[49] = tested on: COLO 205 colon
[50] = tested on: OVCAR-3 ovarian
[51] = tested on: MOLT-4 leukemia
[52] = tested on: HT29 colon
[53] = tested on: U251 CNS
[54] = tested on: SK-MEL-28 melanoma
[55] = tested on: SK-MEL-2 melanoma
[56] = tested on: 786-0 renal
[57] = tested on: HS 578T breast
[58] = tested on: SNB-75 CNS

CN1CCN(Cc2ccc(NC(=O)c3cncc(C#Cc4ccc(N)nc4)c3)cc2C(F)(F)F)CC1
GI50 [1]: 845 nM
TGI [1]: 6710 nM
GI50 [2]: 2600 nM
TGI [2]: 9440 nM
GI50 [3]: 1300 nM
TGI [3]: 6270 nM
GI50 [4]: 1090 nM
TGI [4]: 5680 nM
GI50 [5]: 1170 nM
TGI [5]: 3240 nM
GI50 [6]: 679 nM
TGI [6]: 3510 nM
GI50 [7]: 1090 nM
TGI [7]: 5300 nM
GI50 [8]: 1630 nM
TGI [8]: 9540 nM
GI50 [9]: 358 nM
TGI [9]: 2750 nM
GI50 [10]: 486 nM
TGI [10]: 1630 nM
GI50 [11]: 1580 nM
TGI [11]: 8300 nM
GI50 [12]: 774 nM
TGI [12]: 6200 nM
GI50 [13]: 1300 nM
TGI [13]: 6080 nM
GI50 [14]: 567 nM
TGI [14]: 1930 nM
GI50 [15]: 1380 nM
TGI [15]: 7240 nM
GI50 [16]: 556 nM
TGI [16]: 1280 nM
GI50 [17]: 312 nM
TGI [17]: 2090 nM
GI50 [18]: 1420 nM
TGI [18]: 5270 nM
GI50 [19]: 476 nM
TGI [19]: 3220 nM
GI50 [20]: 501 nM
TGI [20]: 1660 nM
GI50 [21]: 5 nM
TGI [21]: 5540 nM
GI50 [22]: 1230 nM
TGI [22]: 4790 nM
GI50 [23]: 22.7 nM
TGI [23]: 5300 nM
GI50 [24]: 1110 nM
TGI [24]: 5170 nM
GI50 [25]: 1380 nM
TGI [25]: 7220 nM
GI50 [26]: 634 nM
TGI [26]: 1710 nM
GI50 [27]: 596 nM
TGI [27]: 3900 nM
GI50 [28]: 1350 nM
TGI [28]: 7140 nM
GI50 [29]: 408 nM
TGI [29]: 1760 nM
GI50 [30]: 1050 nM
TGI [30]: 3820 nM
GI50 [31]: 988 nM
TGI [31]: 5860 nM
GI50 [32]: 716 nM
TGI [32]: 2930 nM
GI50 [33]: 1120 nM
TGI [33]: 5960 nM
GI50 [34]: 460 nM
TGI [34]: 4500 nM
GI50 [35]: 1160 nM
TGI [35]: 6080 nM
GI50 [36]: 945 nM
TGI [36]: 3480 nM
GI50 [37]: 461 nM
TGI [37]: 4400 nM
GI50 [38]: 945 nM
TGI [38]: 2250 nM
GI50 [39]: 524 nM
TGI [39]: 2140 nM
GI50 [40]: 893 nM
TGI [40]: 3370 nM
GI50 [41]: 1230 nM
TGI [41]: 7220 nM
GI50 [42]: 1960 nM
TGI [42]: 6960 nM
GI50 [43]: 535 nM
TGI [43]: 1460 nM
GI50 [44]: 1900 nM
TGI [44]: 10300 nM
GI50 [45]: 693 nM
TGI [45]: 4690 nM
GI50 [46]: 1620 nM
TGI [46]: 6430 nM
GI50 [47]: 1730 nM
TGI [47]: 9900 nM
GI50 [48]: 1460 nM
TGI [48]: 11800 nM
GI50 [49]: 865 nM
TGI [49]: 3950 nM
GI50 [50]: 1720 nM
TGI [50]: 7880 nM
GI50 [51]: 1030 nM
TGI [51]: 6820 nM
GI50 [52]: 728 nM
TGI [52]: 4590 nM
GI50 [53]: 924 nM
TGI [53]: 6600 nM
GI50 [54]: 1470 nM
TGI [54]: 5540 nM
GI50 [55]: 363 nM
TGI [55]: 1360 nM
GI50 [56]: 1760 nM
TGI [56]: 6830 nM
GI50 [57]: 486 nM
TGI [57]: 2160 nM
GI50 [58]: 1060 nM
TGI [58]: 3530 nM
